From patent publication US20240000927A1, “IMMUNOMODULATORY AGENT” (THE QUEEN'S UNIVERSITY OF BELFAST, priority 2020, published 2024)

What was measured:
[1] = test system: RAW 264.7 macrophages; experiment: Nitrite concentration (Griess reaction) in macrophage culture medium; assay type: cell-based, murine; details: LPS 1 ng/ml, stated to be the same as extracts at 1 mg/ml
Excerpt: Induction of iNOS results in the endogenous production of nitric oxide (NO) by conversion of L-arginine to citrulline (Murad 1998). NO is a key facilitator of inflammatory responses, and is only produced by macrophages activated through the classical pathway (ligation of TLRs) (Mosser 2003). Due to the highly reactive nature of NO, its formation is commonly indirectly measured (i.e. by measuring nitrite (NO2-), one of two primary stable non-volatile breakdown products of NO).
Nitrite (NO2—) concentration in culture medium was measured using the Griess reaction method, in accordance with the protocol provided by the manufacturer (Life Technologies, Paisley). […] The concentration of NO2- was measured colourimetrically at λ550 nm using a Tecan Safire2 microplate reader.
A standard solution of 0.1M sodium nitrite (NaNO2) was used to make serial dilutions in the range of 100-1 μM to quantitate NO2- concentrations by means of a standard curve.
To determine the amount of produced NO2— produced, 50 μl of medium from each well of the 96-well microtitre plate was aspirated post incubation and transferred to a fresh 96-well microtiter plate to which a solution of 50 μl sulfanilic acid 1% (10 mg/ml) in 5% phosphoric acid was added and incubated for 10 minutes at room temperature. […] The concentration of NO2— was measured colourimetrically (λ550 nm) using a Tecan Safire2 microplate reader. […]

[2] = biological target: T1, Toll-like receptor (TLR) 4 (Mus musculus, UniProt Q9QUK6); experiment: TLR 4 inhibition assay with TAK-242 (nitrite production by macrophages); assay type: cell-based, murine; design: endogenous in cells; host or cells: RAW 264.7 murine macrophages; details: TAK-242 10 nM, 18 h, RAW 264.7
T1 sequence (Q9QUK6 26-835): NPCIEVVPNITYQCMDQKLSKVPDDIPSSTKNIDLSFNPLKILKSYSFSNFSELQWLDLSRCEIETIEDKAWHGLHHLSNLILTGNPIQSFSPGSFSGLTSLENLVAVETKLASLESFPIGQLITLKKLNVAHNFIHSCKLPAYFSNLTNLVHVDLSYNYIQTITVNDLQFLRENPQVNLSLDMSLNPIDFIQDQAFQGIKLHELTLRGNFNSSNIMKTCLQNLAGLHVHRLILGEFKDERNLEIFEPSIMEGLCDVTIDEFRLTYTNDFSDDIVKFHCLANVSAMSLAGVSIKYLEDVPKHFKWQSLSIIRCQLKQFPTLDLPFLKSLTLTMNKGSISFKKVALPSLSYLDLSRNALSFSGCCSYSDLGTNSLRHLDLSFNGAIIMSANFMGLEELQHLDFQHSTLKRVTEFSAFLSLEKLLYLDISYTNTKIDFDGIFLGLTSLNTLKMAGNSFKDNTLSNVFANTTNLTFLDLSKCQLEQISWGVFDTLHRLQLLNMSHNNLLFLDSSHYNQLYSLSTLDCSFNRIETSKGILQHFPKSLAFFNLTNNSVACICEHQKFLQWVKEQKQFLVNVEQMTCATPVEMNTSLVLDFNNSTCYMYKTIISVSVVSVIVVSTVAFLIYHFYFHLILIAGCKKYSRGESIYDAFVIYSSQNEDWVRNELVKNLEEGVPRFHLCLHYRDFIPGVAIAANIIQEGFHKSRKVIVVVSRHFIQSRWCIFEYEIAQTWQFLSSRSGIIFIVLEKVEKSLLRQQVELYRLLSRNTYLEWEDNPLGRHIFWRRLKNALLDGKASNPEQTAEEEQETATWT
Excerpt: TAK-242 is a small molecule which is a specific inhibitor of Toll-like receptor (TLR) 4, which inhibits the production of pro-inflammatory mediators by binding to Cys747 in the intracellular domain of TLR4. This prevents interactions between TLR4 and its adaptor molecules Toll/IL-1 receptor domain containing adaptor protein (TIRAP) and Toll/IL-1 receptor domain-containing adaptor protein inducing interferon-β-related adaptor molecule (TRAM). Consequently, LPS-induced signal transduction is inhibited, including downstream signalling transduction that results in the production of pro-inflammatory cytokines (Matsunaga et al. 2011). […] RAW 264.7 were prepared as described in Example 3 and subsequently seeded at a density of 1×10^5 cells/well in two 96-well microtitre plates. S. cordifolia fractions (100 l) SCAF 0 and SCAF 5 (1-0.001 mg/ml) were added in triplicate to one of the plates. The positive control was 1 ng/ml LPS and the negative control was 100 μl DMEM medium. The remaining plate was arranged in an identical manner. However, the fractions SCAF 0 and SCAF 5 and positive (LPS 1 ng/ml) and negative (medium) all contained TAK-242 at a concentration 10 nM. Plates were incubated for 18 h in an incubator at 5% CO2 at 37° C. After incubation, nitrite concentrations were determined using the Griess reagent.

[3] = biological target: T1, Toll-like receptor (TLR) 4; details: reported, Ii et al. 2006; cited from earlier work

Compound	levels of NO2− [1] [µmol/mL]	activation of macrophages (nitrite production) in the presence of TAK-242 [2]	IC50 [3] [nM]
Lipopolysaccharide [LPS]	60 to 80	inactivated	
CCOC(=O)C1=CCCC[C@H]1S(=O)(=O)Nc1ccc(F)cc1Cl [TAK-242]			1.1 to 11
